Measured values: PubChem BioAssay (NCI)
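48-hour exposure; five concentrations; linearly interpolated endpoints. GI50 is the concentration that inhibits growth by half. TGI is the concentration that stops growth completely.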

How the values were obtained:
Assay in all cases: inhibition of tumour cell growth, NCI panel, 48 h
786-0 renal = test system: 786-0 renal
BT-549 breast = test system: BT-549 breast
EKVX NSCLC = test system: EKVX NSCLC
HOP-92 NSCLC = test system: HOP-92 NSCLC
HS 578T breast = test system: HS 578T breast
K-562 leukemia = test system: K-562 leukemia
MCF7 breast = test system: MCF7 breast
SF-268 CNS = test system: SF-268 CNS
SK-MEL-2 melanoma = test system: SK-MEL-2 melanoma
SW-620 colon = test system: SW-620 colon

SMILES	TGI (786-0 renal) [µM]	TGI (BT-549 breast) [µM]	TGI (EKVX NSCLC) [µM]	TGI (HOP-92 NSCLC) [µM]	TGI (HS 578T breast) [µM]	TGI (K-562 leukemia) [µM]	TGI (MCF7 breast) [µM]	TGI (SF-268 CNS) [µM]	TGI (SK-MEL-2 melanoma) [µM]	TGI (SW-620 colon) [µM]	GI50 (786-0 renal) [µM]	GI50 (BT-549 breast) [µM]	GI50 (EKVX NSCLC) [µM]	GI50 (HOP-92 NSCLC) [µM]	GI50 (HS 578T breast) [µM]	GI50 (K-562 leukemia) [µM]	GI50 (MCF7 breast) [µM]	GI50 (SF-268 CNS) [µM]	GI50 (SK-MEL-2 melanoma) [µM]	GI50 (SW-620 colon) [µM]
NC(N)=N/N=C(/c1ccccc1)c1ccc(O)cc1O	96.4	> 100	64.7	> 100	80.3	> 100	> 100	> 100	> 100	> 100										
COc1ccc(CC(C#N)c2cc(OC)c(OC)c(OC)c2)cc1 (stereo not given)	> 100	> 100	> 100	16.7	> 100	> 47.4		> 71.4	> 100	> 100										
OCCCCC#Cc1ccccc1C#Cc1cccs1	27.9	25.4	23.9	28.7	39.1	70.6	29.1	32	37.9	30.6	14.3	12.4	10.8	14.1	14.9	20.3	1.88	15.8	19	15.9
Cc1sc2c(c1C)C(c1ccc(Cl)cc1)=N[C@@H](CC(=O)Nc1ccc(O)cc1)c1nnc(C)n1-2	24.8	24.2		13.1	27.2	60.3	18.2	50.8	22	32	0.837	4.17		0.0423	0.169	0.499	0.0553	11.8	3.31	10.6
Cc1ccc(C(=O)Nc2ccccc2C(=O)N/N=C(\c2ccccc2)c2ccccn2)cc1	> 100	> 100	> 100	> 100	> 100	> 100	> 100	> 100	> 100	> 100	0.362	0.517	0.207	6.27	9.13	0.855	0.359	0.274		0.603
O=C1/C(=C/c2ccc(C(F)(F)F)cc2)COc2ccc(O)cc21	4.17	15.5	22.5	24.7				13.6	21.9	3.4	1.91	4.29	10.7	11.8	2.7			2.75	9.43	1.71
COC(=O)C1=C2CO[C@@H]3C[C@H]4C(C)(C)CCC[C@]4(C)C(=CC1)[C@]23C	> 100	> 100	> 100	44.7	> 100		> 100	> 100		> 100	41.5	48.9	45.5	8.2	47		44	98.3		39.5
c1cc(C2N3CCCN2CC3)ccn1 (stereo not given)	> 100	> 100	> 100		67.7	> 100	> 100	30.4	> 100	> 100										
CC1(C)CC(O)CCCCCCOc2c(CN)cccc2NC(=O)c2nc(cnc2N)-c2ccc(cc2)S1(=O)=O (stereo not given)	1.97	2.85	5.78	5.82		2.69	1.81	3.44	3.15	2.36	0.0278	1.25	1.93	2.72		0.0538	< 0.01	1.27	1.36	0.629
CO[C@H]1/C=C/C[C@H](C)[C@@H](C)S(=O)(=O)NC(=O)c2ccc3c(c2)N(C[C@@H]2CC[C@H]21)C[C@@]1(CCCc2cc(Cl)ccc21)CO3	8.27	6.99	6.76	3.4	7.24		9.77	14	1.43	10.3	2.9	2.23	1.91	1.55	1.54		1.43	3.6	0.321	2.84
COc1cc2c(cc1-c1c(C)noc1C)ncc1[nH]c(=O)n([C@H](C)c3ccccn3)c12	> 100	> 100		37.3	> 100	> 100	> 100	> 100	77.6	> 100	5.04	13.1		0.0677	0.295	0.75	0.195	11.7	6.07	28.1
